In one assay the target is T1, MAO A (Rattus norvegicus, UniProt P21396).
T1 construct: from tissue; host or cells: rat brain homogenate
T1 sequence (P21396 1-526): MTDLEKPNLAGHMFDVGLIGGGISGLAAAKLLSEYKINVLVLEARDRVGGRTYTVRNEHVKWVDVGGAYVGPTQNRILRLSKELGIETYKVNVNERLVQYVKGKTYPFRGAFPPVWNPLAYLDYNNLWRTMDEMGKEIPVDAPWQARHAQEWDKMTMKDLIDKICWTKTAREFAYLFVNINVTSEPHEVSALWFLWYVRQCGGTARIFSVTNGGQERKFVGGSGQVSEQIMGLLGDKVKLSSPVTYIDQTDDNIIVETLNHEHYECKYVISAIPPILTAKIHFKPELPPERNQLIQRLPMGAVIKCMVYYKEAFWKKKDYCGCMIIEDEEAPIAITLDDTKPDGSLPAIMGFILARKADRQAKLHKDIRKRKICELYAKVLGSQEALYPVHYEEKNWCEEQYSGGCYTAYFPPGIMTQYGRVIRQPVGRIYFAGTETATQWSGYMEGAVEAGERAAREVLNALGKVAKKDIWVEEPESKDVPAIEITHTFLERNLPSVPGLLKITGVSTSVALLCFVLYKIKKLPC
The assay can be described thus: MAO A inhibition in dilute rat brain homogenate. Type of assay: biochemical. The note with it: 14C-phenylethylamine or 14C-tryptamine 0.4 μmol/l, 37° C., 20 min. The procedure:
(§1) The MAO-inhibiting activity of the compounds according to the invention can be determined using standard methods. Thus, monoamine oxidases A and B were determined in dilute rat brain homogenate to which test substances in various concentrations and ^14 C-phenylethylamine or ^14 C-tryptamine in a concentration of 0.4 μmol/l were added. This mixture was incubated at 37° C. for 20 min.
(§2) The reaction was then stopped with 0.1 normal HCl, and the products were determined after extraction in a toluene scintillator (PPO+POPOP in toluene). The blank was determined on a similar mixture with an incubation time of 0 min.
(§3) The median inhibitory concentration (IC50) was calculated by linear regression after logit-log transformation from the values for the inhibition at the various concentrations relative to the control.

The next assay has as its target T2, MAO B (Rattus norvegicus, UniProt P19643).
T2 construct: from tissue; host or cells: rat brain homogenate
T2 sequence (P19643 1-520): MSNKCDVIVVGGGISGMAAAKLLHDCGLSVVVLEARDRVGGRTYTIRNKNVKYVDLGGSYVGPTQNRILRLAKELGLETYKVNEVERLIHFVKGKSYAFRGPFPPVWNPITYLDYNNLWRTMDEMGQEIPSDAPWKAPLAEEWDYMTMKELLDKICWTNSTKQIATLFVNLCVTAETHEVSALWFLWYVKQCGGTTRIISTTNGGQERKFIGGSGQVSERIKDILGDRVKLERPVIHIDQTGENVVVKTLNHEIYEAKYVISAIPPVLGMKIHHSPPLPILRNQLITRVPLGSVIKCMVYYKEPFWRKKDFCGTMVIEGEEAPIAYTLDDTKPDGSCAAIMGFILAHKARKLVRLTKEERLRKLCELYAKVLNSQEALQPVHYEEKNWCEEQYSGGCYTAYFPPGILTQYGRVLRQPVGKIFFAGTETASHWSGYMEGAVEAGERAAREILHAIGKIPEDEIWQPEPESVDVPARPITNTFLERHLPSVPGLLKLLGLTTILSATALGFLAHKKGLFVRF
Description: MAO B inhibition in dilute rat brain homogenate. Type of assay: biochemical. Conditions: 20 min; for IC50: dilute rat brain homogenate, 14C-phenylethylamine or 14C-tryptamine 0.4 μmol/l, 37° C.; for MAO A / MAO B IC50 ratio: selectivity for MAO B over MAO A, rat brain homogenate. The procedure:
as §1, §2, §3

These results are taken from patent publication US5414006A, “Arylalkoxythiocoumarins, the preparation thereof and therapeutic compositions containing these” (BASF Aktiengesellschaft, priority 1992, dated 1995).

Structures are written as SMILES. Some results are limits rather than exact numbers.

As usually defined, the IC50 is the concentration at which inhibition is half-maximal. As to `Cc1c(C)c2ccc(OCc3csc(C(C)C)n3)cc2oc1=S` [Example 2, 3,4-Dimethyl-7-(2-isopropylthiazol-4-ylmethoxy)-2-thiocoumarin], the IC50 against MAO A is more than 10000 nM; against MAO B, 3 nM. In addition, the “MAO A / MAO B IC50 ratio” value on MAO B was more than 3333.

Turning to `Cc1nnc(COc2ccc3c(C)c(C)c(=S)oc3c2)o1` [Example 3, 3,4-Dimethyl-7-(2-methyl-1,3,4-oxadiazol-5-ylmethoxy)-2-thiocoumarin], the IC50 on MAO A is more than 10000 nM. At MAO B, the IC50 amounted to 10 nM and the “MAO A / MAO B IC50 ratio” value was more than 1000.

For the molecule `Cc1c(C)c2ccc(OCc3nnc(C(C)C)s3)cc2oc1=S` [Example 1, 3,4-Dimethyl-7-(2-isopropyl-1,3,4-thiadiazol-5-ylmethoxy)-2-thiocoumarin], the IC50 against MAO A was more than 10000 nM. Further, at MAO B, half-maximal inhibition (IC50) required 1 nM and the “MAO A / MAO B IC50 ratio” value is on record as > 10,000.

In turn, `CC(C)c1ccc(COc2ccc3ccc(=S)oc3c2)cc1` [Example 12, 7-(4-Isopropylbenzyloxy)-2-thiocoumarin] had an IC50 against MAO A not below 10000 nM. Besides, at MAO B, inhibition was half-maximal at 3 nM (IC50) and the “MAO A / MAO B IC50 ratio” value is on record as more than 3333.

Take `Cc1c(C)c2cc(Cl)c(OCc3nnc(C(C)C)s3)cc2oc1=S` [Example 13, 6-Chloro-3,4-dimethyl-7-(2-isopropyl-1,3,4-thiadiazol-5-ylmethoxy)-2-thiocoumarin]: the IC50 at MAO A was more than 10000 nM. On MAO B, inhibition was half-maximal at 3 nM (IC50) and the “MAO A / MAO B IC50 ratio” value is more than 3333.

As to `CCCc1nnc(COc2ccc3c(C)c(C)c(=S)oc3c2)s1` [Example 4, 3,4-Dimethyl-7-(2-n-propyl-1,3,4-thiadiazol-5-ylmethoxy)-2-thiocoumarin], the figures for the IC50 at MAO A and at MAO B were not below 10000 nM and 2 nM, respectively. Moreover, the “MAO A / MAO B IC50 ratio” value at MAO B was more than 5000.

`Cc1c(C)c2cc(Cl)c(OCc3nnc(C4CC4)s3)cc2oc1=S` [Example 14, 6-Chloro-3,4-dimethyl-7-(2-cyclopropyl-1,3,4-thiadiazol-5-ylmethoxy)-2-thiocoumarin] came in with an IC50 at MAO A of more than 10000 nM. For the same molecule, on MAO B, the IC50 was 6 nM and the “MAO A / MAO B IC50 ratio” value was more than 1667.
